According to patent US7101844B2, “Cytoplasmic transduction peptides and uses thereof” (Creagene, Inc., priority 2002, dated 2006):
Entries after “also recorded” stand apart in the source; their conditions may differ.

Experiments:
Assay type in all cases: cell-based
HeLa cells [1] = test: Subcellular localization of CTP-FITC by confocal microscope without cell fixation; details: FITC-labeled peptide, 25 μg/ml, 1 hr
Excerpt: Fixation step is inevitable for examining the subcellular localization of the transduced β-gal in the cells with antibodies. However, according to the previous reports, the fusion protein attached to cell surface is very likely to be introduced into the cell during a cell fixation procedure, which may affect its transduction potential and its subcellular localization. However, FITC-labeled membrane permeation peptides allow its subcellular localization to be observed under a confocal microscope without cell fixation. Monolayered HeLa cells were treated for 1 hr with FITC-labeled CTP, PTD or MTS at a concentration of 25 μg/ml, and washed three times with HBSS, followed by observation under a confocal microscope without cell fixation.

HeLa cells [2] = test: Transduction of PTD- and CTP-β-galactosidase into HeLa cells (X-gal staining after fixation); details: 100 μg/ml, 1 hr; for transduction potential: β-galactosidase fusion protein, HeLa cells, fixation
Excerpt: Although various other substitutions could be performed, it is essential in this invention that the introduction of a positive charge by arginine and the substitution by an α-helix stabilizing amino acid should be carried out for maintaining the principle function of the PTD peptide. Therefore, as a substitute amino acid, the positively charged amino acid is restricted to arginine, and the negatively charged amino acid is restricted to glutamic acid. β-galactosidase was fused to the CTP candidate peptide, the fusion proteins were isolated and purified (see FIG. 2), and HeLa cells were treated with each of the fusion proteins. This was then followed by an analysis of the transduction potential and a determination of the extent of the cytoplasmic remaining property.
The transduction potential of the PTD and CTP candidates was tested with HeLa cells. Using a 24-well plate (Nunc), 5×10^4 HeLa cells were inoculated into high glucose DMEM (containing 10% FBS) and cultured for 36 hr. The cells were rinsed with PBS and treated with 100 μg/ml of PTD- and CTP-β-galactosidase in an opti-MEM I medium. After 1-hr incubation, cells were fixed for 10 min at room temperature with a fixation solution (2% formaldehyde, 0.2% glutaraldehyde in PBS). Then, the cells were rinsed twice with PBS, and stained for 2 hr with dye (0.1% X-gal, 5 mM potassium ferricyanide, 5 mM potassium ferrocyanide, 2 mM MgCl2 in PBS) to examine their transduction potential (see FIG. 3). The samples showing a low level of staining, even after a 2-hr staining, were incubated overnight, and then stained for the relative transduction potential. The transduction potentials of the PTD and CTP candidates into HeLa cells were seen to be in the following order: PTD5<CTP502<<CTP501=CTP506<CTP507<CTP505<CTP503=CTP504<CTP508=CTP510=MTS<CTP509<<PTD=CTP511<<CTP512.

HeLa cells [3] = test: Transduction potential of FITC-labeled peptides by FACS; details: FITC-labeled peptide
Excerpt: It has been shown by trypsin treatment that the transduction potential of the peptides known so far is distorted presumably due to the influence of cell fixation (46). Therefore, to verify that the CTP-β-gal of this invention has genuine transduction potential, trypsinization steps were included in the experiments as described above. At this time, since the activity of CTP per se may be affected by its fusion partner β-gal, CTP labeled with fluorescent molecule instead of β-gal was examined for its transduction capacity into cells. HeLa cells were treated with CTP-FITC and then trypsinized prior to harvest. The amounts of the peptides transduced into the cells were measured by FACS (Fluorescence-activated cell sorter) analysis with FACSCalibur (Becton Dickison, USA).
HeLa cells were inoculated into 12-well plates at a density of 2×10^5/ml and cultured for 1 day at 37° C. […] The cells were washed twice and the fluorescent intensity of each sample was measured by FACS.
In order to examine the transduction potential of peptides at different concentrations, cells were treated for 2 hr with peptides with increasing concentrations of peptides, and then trypsinized before examination. The fluorescent intensity in the cells was measured by FACS.

HeLa cells [4] = test: Quantitative analysis of the membrane permeability of CTP-β-gal (β-gal activity of lysates of trypsinized cells); details: incubation for 20 hr
Experimental: For the quantitatation of the permeability of each CPP-fusion protein, HeLa cells were treated with PTD, MTS and CTP508, 509, 511, 512, 513 and 514, CPP-β-gal fusion proteins for 20 hr as described above, and the cells were trypsinized, followed by measuring the amounts of fusion protein imported into cells. Trypsin-treated cells were washed twice with 10% FBS-containing DMEM (high glucose) to inactivate any residual trypsin activity, and then washed once with 1× PBS. The cells collected by centrifugation were resuspended in a 0.9% Triton-X 100 solution, incubated for 10 min at room temperature to lyse cells, and then the supernatant of each lysate was obtained by centrifugation at 12000 rpm for 2 min. The β-gal activity of each sample was measured at 570 nm using enhanced β-gal assay kit (GTS Inc, USA) and an ELISA reader.

CTP512: CTP (2G4R8R9R), sequence YGRRARRRRRR; representative CTP used from Example 5-4 on
order of transduction potential (HeLa cells [1]): CTP512>513
subcellular localization (HeLa cells [1]): observed only in the cytoplasm, and not in the nucleus
transduction potential (HeLa cells [2]): higher transduction potential than the wild type PTD; also recorded: significantly high transduction potential
transduction potential (HeLa cells [2]; listed as CTP 512): transduction potential higher than wild type PTD
order of transduction potentials into HeLa cells (HeLa cells [2]; β-galactosidase fusion, X-gal staining): CTP511<<CTP512
transduction potential at the same concentrations (HeLa cells [3]; 2 hr, trypsinized): significantly higher transduction potential than either PTD or MTS
transduction potential over time (HeLa cells [3]; trypsinized cells, FACS): higher transduction potential than the PTD in all period of time
transduction into HeLa cells (HeLa cells [4]): much higher transduction potential than either the PTD or the MTS
